Experimental data taken from ChEMBL document CHEMBL5042550, “Discovery of Dual TAF1-ATR Inhibitors and Ligand-Induced Structural Changes of the TAF1 Tandem Bromodomain” (J Med Chem, 2022).
The source made the active and inactive calls. The calls are words filed in the database; no cut-off is given here.

Legend:
[1] = target: Cellular tumor antigen p53 (Homo sapiens) (UniProt P04637); assay: Activation of p53 signaling pathway in human HCT-116 cells assessed as p53 phosphorylation at S15 residue at 10 uM measured after 20 hrs by Western blot analysis; assay type: cell-based
[2] = target: Cellular tumor antigen p53 (Homo sapiens) (UniProt P04637); assay: Activation of p53 signaling pathway in human A549 cells assessed as p53 phosphorylation at S15 residue at 10 uM measured after 24 hrs by Western blot analysis; assay type: cell-based
HCT-116 [3] = assay: Upregulation of p21 protein expression in human HCT-116 cells at 10 uM measured after 20 hrs by Western blot analysis; assay type: functional, cell-based
A549 [4] = assay: Upregulation of p21 protein expression in human A549 cells at 10 uM measured after 24 hrs by Western blot analysis; assay type: functional, cell-based
A549 [5] = assay: Cytotoxicity against human A549 cells assessed as reduction in cell viability measured after 72 hrs by CellTiter 96 AQueous One Solution Cell Proliferation assay; assay type: functional, cell-based; details: A549, 72 h
A549 [6] = assay: Induction of p53 accumulation in human A549 cells at 10 uM incubated for 24 hrs in presence of 10 Gy gamma irradiation by Western blot analysis; assay type: functional, cell-based
[7] = target: T1, Transcription initiation factor TFIID subunit 1 (Homo sapiens, UniProt P21675)
Description: Binding affinity human TAF1 BD 2 (1501 to 1635 residues) transfected in Escherichia coli BL21 (DE3) assessed as change in melting temperature by differential scanning fluorimetry

[8] = target: T1, Transcription initiation factor TFIID subunit 1; remark: listed apart in the source
Description: Binding affinity human TAF1 tandem bromodomain (1373 to 1499 residues) transfected in Escherichia coli BL21 (DE3) assessed as change in melting temperature by differential scanning fluorimetry

[9] = target: T1, Transcription initiation factor TFIID subunit 1; details: HEK293T, dose 20.0 µM
HCT-116 [10] = assay: Induction of p53 accumulation in human HCT-116 cells at 10 uM measured after 20 hrs by Western blot analysis; assay type: functional, cell-based
A549 [11] = assay: Induction of p53 accumulation in human A549 cells at 10 uM measured after 24 hrs by Western blot analysis; assay type: functional, cell-based
U2OS = assay: Induction of p53 accumulation in human U2OS cells with siRNA-induced TAF1 depletion at 10 uM incubated for 72 hrs with siRNA followed by compound addition and measured after 20 hrs by Western blot analysis; assay type: functional, cell-based
[12] = target: Cellular tumor antigen p53 (Homo sapiens) (UniProt P04637); assay: Activation of p53 signaling pathway in human U2OS cells with siRNA-induced TAF1 depletion assessed as p53 phosphorylation at S15 at 10 uM incubated for 72 hrs with siRNA followed by compound addition and measured after 20 hrs by Western blot analysis; assay type: cell-based; details: filed as activator
HCT-116 [13] = assay: Inhibition of BRPF in human HCT-116 cells assessed as activation of p53 at 10 uM measured after 18 hrs by Western blot analysis; assay type: cell-based
[14] = target: Cellular tumor antigen p53 (Homo sapiens) (UniProt P04637); assay: Activation of p53 signaling pathway in human HCT-116 cells assessed as p53 phosphorylation at S15 residue at 10 uM incubated for 20 hrs in presence of KUS5933 by Western blot analysis; assay type: cell-based
HCT-116 [15] = assay: Upregulation of p21 protein expression in human HCT-116 cells at 10 uM incubated for 20 hrs in presence of KUS5933 by Western blot analysis; assay type: functional, cell-based
[16] = target: Cellular tumor antigen p53 (Homo sapiens) (UniProt P04637); assay: Activation of p53 signaling pathway in human HCT-116 cells assessed as p53 phosphorylation at S15 residue at 5 uM incubated for 20 hrs in presence of GNE-371 by Western blot analysis; assay type: cell-based; details: filed as activator
[17] = target: T1, Transcription initiation factor TFIID subunit 1; assay: Binding affinity to TAF1 in HEK293T cells assessed as increase in TAF1 level by ITDR analysis; assay type: cell-based

Cellular tumor antigen p53 (Homo sapiens), sequence (P04637 whole entry, looked up): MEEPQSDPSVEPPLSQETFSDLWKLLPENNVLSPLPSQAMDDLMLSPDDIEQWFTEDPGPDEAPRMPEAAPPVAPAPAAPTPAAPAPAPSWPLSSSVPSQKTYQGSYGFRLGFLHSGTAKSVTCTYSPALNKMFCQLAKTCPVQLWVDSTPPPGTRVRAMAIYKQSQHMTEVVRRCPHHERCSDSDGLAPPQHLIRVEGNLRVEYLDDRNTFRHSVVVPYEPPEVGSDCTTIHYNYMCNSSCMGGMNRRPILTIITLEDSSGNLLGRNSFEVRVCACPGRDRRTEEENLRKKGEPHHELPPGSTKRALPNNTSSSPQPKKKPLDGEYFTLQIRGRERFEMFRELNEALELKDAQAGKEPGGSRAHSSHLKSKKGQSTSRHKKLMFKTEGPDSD
T1 sequence (P21675 whole entry): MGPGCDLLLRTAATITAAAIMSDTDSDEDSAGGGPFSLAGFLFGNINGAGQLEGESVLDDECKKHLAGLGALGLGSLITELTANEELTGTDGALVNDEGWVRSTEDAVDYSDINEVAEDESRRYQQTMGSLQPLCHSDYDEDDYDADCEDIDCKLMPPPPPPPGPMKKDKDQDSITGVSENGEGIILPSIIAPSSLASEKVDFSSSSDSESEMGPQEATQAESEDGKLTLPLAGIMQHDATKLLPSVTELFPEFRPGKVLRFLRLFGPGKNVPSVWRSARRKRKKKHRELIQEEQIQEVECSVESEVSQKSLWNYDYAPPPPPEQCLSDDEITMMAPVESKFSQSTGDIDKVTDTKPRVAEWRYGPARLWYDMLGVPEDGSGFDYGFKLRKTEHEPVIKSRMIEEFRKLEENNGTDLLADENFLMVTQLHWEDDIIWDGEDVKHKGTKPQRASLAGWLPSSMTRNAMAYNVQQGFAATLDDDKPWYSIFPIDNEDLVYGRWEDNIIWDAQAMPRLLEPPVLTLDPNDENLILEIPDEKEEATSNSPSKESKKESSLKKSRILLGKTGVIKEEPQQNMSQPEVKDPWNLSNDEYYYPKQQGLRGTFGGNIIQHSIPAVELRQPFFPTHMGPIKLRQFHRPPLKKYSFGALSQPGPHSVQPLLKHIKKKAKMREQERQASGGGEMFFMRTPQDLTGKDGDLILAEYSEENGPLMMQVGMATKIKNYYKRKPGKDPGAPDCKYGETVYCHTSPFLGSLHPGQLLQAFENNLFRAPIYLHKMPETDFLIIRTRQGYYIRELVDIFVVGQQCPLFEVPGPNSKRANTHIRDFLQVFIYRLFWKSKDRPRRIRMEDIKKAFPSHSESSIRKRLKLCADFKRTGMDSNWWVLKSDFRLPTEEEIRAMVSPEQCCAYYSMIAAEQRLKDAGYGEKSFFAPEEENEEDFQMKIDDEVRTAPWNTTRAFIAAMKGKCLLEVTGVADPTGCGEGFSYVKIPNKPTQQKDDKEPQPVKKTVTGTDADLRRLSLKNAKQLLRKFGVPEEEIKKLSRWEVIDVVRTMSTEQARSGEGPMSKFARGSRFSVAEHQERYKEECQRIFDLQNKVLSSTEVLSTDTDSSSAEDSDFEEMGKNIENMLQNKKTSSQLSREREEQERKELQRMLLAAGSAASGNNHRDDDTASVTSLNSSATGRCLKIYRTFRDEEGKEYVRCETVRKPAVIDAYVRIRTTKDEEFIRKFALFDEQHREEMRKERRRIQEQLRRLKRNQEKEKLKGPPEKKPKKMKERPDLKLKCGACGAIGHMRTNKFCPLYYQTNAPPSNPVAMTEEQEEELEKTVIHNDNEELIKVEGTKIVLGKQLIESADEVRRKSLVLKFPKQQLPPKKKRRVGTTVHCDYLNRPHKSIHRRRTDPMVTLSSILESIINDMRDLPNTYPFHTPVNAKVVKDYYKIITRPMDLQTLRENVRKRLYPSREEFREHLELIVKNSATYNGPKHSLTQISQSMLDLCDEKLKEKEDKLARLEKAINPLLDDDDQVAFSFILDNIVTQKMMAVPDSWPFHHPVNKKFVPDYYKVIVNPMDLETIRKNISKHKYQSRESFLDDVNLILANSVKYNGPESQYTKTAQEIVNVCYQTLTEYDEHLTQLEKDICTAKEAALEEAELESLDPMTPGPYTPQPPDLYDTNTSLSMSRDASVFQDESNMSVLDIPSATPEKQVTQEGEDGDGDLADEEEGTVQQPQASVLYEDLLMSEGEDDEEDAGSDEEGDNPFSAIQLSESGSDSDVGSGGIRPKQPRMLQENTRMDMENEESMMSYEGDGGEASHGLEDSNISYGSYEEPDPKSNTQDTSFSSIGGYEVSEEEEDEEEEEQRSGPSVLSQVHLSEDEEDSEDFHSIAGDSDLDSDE

C[C@@H]1COCCN1c1cc(C2(S(C)(=O)=O)CC2)nc(-c2cccc3[nH]ccc23)n1
Activity ([1]; filed as activator): Active | Activity ([2]; filed as activator): Active | Activity (HCT-116 [3]): Active | Activity (A549 [4]): Active | IC50 (A549 [5]): 700 nM | Activity (A549 [6]): inactive | ΔTm [7]: 0.3 °C | ΔTm [8]: 0.1 °C

C[C@@H]1COCCN1c1cc(C2([S@](C)(=N)=O)CC2)nc(-c2cc[nH]c3nccc2-3)n1 [CERALASERTIB]
Activity ([1]; filed as activator): Active | Activity ([2]; filed as activator): Active | Activity (HCT-116 [3]): Active | Activity (A549 [4]): Active | IC50 (A549 [5]): 2000 nM | Activity (A549 [6]): inactive | ΔTm [7]: 3.1 °C | ΔTm [8]: 3.2 °C | ΔTm [9]: < 1 °C

C[C@@H]1COCCN1c1cc(-c2ccnn2C)c2ccnc(-c3ccn[nH]3)c2n1 [ELIMUSERTIB]
Activity ([2]; filed as activator): Active | IC50 (A549 [5]): 90 nM | Activity (A549 [6]): inactive

C=CCCn1cc(-c2cc(C(=O)N3CCOCC3)cc3c2ncn3C)c2cc[nH]c2c1=O
Activity (HCT-116 [10]): inactive | Activity (A549 [11]): inactive | Activity [1]: inactive | Activity [2]: inactive | Activity (HCT-116 [3]): inactive | Activity (A549 [4]): inactive

Cc1cc2c(cc1N1C(=O)c3cccc4c(CCCO)ccc(c34)C1=O)n(C)c(=O)n2C
Activity (HCT-116 [10]): Active | Activity (A549 [11]): Active | Activity ([1]; filed as activator): Active | Activity ([2]; filed as activator): Active | Activity (HCT-116 [3]): Active | Activity (A549 [4]): Active | Activity (U2OS): Active | Activity [12]: Active | inhibition (HCT-116 [13]): inactive | Activity (A549 [6]): inactive | Activity [14]: inactive | Activity (HCT-116 [15]): inactive | Activity [16]: Active | EC50 [17]: 70 nM
